Converted amounts (≈) assume the structure as drawn.
Legend:
[1] = Solubility of ocaperidone in water and buffers of gastro-intestinal fluids; assay type: physicochemical
Method: Ocaperidone is virtually insoluble in water. Its water solubility is less or equal to 0.007 mg per mL. […] In order to be absorbed uniformly from the gastrointestinal tract after oral administration, the drug must be dissolved and must remain in the solution for absorption. The pH of the gastrointestinal tract varies from pH 1 to 5 in the stomach and pH 4 to 7.5 in the intestine. There is also known significant variation of the intestinal pH on an intra- and inter-individual basis in the general population. This variation is mostly attributed to factors such as gastro-intestinal motility, concomitantly administered food or drug and food habits etc. It is an object of the present invention to provide a therapeutic system for ocaperidone from which, despite its very low solubility in water (0.007 mg/mL), is dispensed/released in the surrounding intestinal environment in a dissolved state. This invention eliminates the effect of surrounding pH on the solubility of ocaperidone. In addition, this improvement in solubility makes this therapeutic system to function appropriately from the bioavailability point of view and overcomes the inter- and intra-individual variability.

[2] = Bioavailability studies with conventional oral dosage forms in animals; assay type: in vivo
Description: (§1) One of the objects of the invention is to overcome these drawbacks observed with conventional dosage forms.

[3] = Bioavailability studies with conventional oral dosage forms in humans; assay type: in vivo; conditions: within a patient and between patients
Description: as §1

Cc1nc2c(C)cccn2c(=O)c1CCN1CCC(c2noc3cc(F)ccc23)CC1 [Ocaperidone]
solubility in the buffers of gastro-intestinal fluids ([1]; buffers of pH 3.0 and above): in the same range as that of water | solubility ([1]; water): 7 µg/mL (≈ 16.6 µM) | water solubility ([1]; water): ≤ 0.007 mg per mL | variability of bioavailability [2]: significant high variability | variability of bioavailability [3]: significant high variability
